One compound from patent publication US20200085805A1, “METHOD FOR TREATING CANCER RELATED TO ACTIVATION OF RAS GENE IN SUBJECT” (priority 2018, published 2020) can be followed below.

Structures are written as SMILES.

Assay [1] deals with L185+L186 Drosophila tumor model. Nature of the assay: Inhibition of tumors in GFP-scrib-/- Drosophila tumor model (GFP fluorescence, live imaging). It is filed as in vivo, Drosophila melanogaster. Particulars: oral administration of 24 mM in doped culture medium, 5 days, 80 pupae; without compound 2.37×10^9 μW/cm^2. The source says: A green fluorescent protein (GFP)-tagged FLP/FRT recombinant system and scrib/TM6B balanced Drosophila melanogaster strain were used for hybridization to obtain a GFP-scrib−/− chimeric tumorigenesis model (L185+L186), wherein the GFP expression is in linkage with tumorigenesis. The preparation of a normal culture medium and a doped culture medium was the same as in embodiment 1. After culturing in the normal culture medium and the doped culture medium for 5 days, 80 pupae were taken from the culture tubes used for the test and washed twice with PBS (phosphate buffered saline solution). The pupae were neatly arranged on slides and were then transferred to an ice box to freeze for 2 hours. The pupae were observed under an IVIS Lumina X5 live imaging system (excitation light wavelength 450-490 nm, the same hereafter), images were taken, and the expression of the green fluorescent protein was evaluated.

Another assay relates to RAS mRNA. Put plainly: Reduction of RAS mRNA in Drosophila pupae, measured by RT-PCR (2-ΔΔCt method). Format: in vivo. Particulars: 24 mM in culture medium, 5 days culture, 40 pupae, GAPDH internal reference, versus normal medium control. On the procedure:
The molecular weight of 1-methyl-4-phenyl-1,2,3,6-tetrahydropyridine is 173.25 g/mol. 1.7325 g of the compound was accurately weighed, dissolved in 10 mL of DMSO solution to prepare a 1 M mother liquid for later use.
The preparation of a normal culture medium: 0.53 g of agar and 1.6 g of yeast extraction powder was added to 50 mL H2O. The mixture obtained was heated until boiling. Then, 0.43 g of NaKT, 0.033 g of anhydrous CaCl2, 1.58 g of sucrose, 3.17 g of glucose, and 3.88 g of corn flour (pre-mixed thoroughly with cold water to prevent agglomeration) were added to the mixture, and was brought to boil before stopping heating. The final mixture was transferred in aliquots into a number of culture tubes with a diameter of 25 mm and a volume of 5-8 mL. The filled culture tubes were sterilized at high temperature (30 min, 116° C.), followed by cooling to around 50° C. […]
In the present invention, the content of RAS mRNA was measured by RT-PCR. […] After the amplification, the relative expression level of K-RAS in Drosophila was determined by the 2-ΔΔCt method.
After culturing in the normal culture medium (as a control group) and a culture medium doped by 24 mM of 1-methyl-4-phenyl-1,2,3,6-tetrahydropyridine (as a test group) for 5 days, 40 pupae were taken from each of the culture tubes used for the test. […] The relative amount of RAS mRNA was determined by the above method.

For the compound `CN1CC=C(c2ccccc2)CC1` [1-methyl-4-phenyl-1,2,3,6-tetrahydropyridine], the “absolute value of the fluorescence of the Drosophila tumor model” value in assay [1] is given as 3.5×10^8 μW/cm^2. Also, in the assay on RAS mRNA, the “reduction of RAS mRNA level” value was found to be 3.5 folds.
